Test results taken from PMC10051310, “Antiproliferative Activity, Multikinase Inhibition, Apoptosis- Inducing Effects and Molecular Docking of Novel Isatin–Purine Hybrids” (Medicina, 2023).

What was measured:
HeLa = experiment: MTT cytotoxicity assay, HeLa; conditions: Homo sapiens, 24 h, read-out: In Vitro Cytotoxicity IC50 HeLa
Description: (§4) Sunitinib, a well-known multi-kinase inhibitor, was used as a reference compound.
(§5) After incubation for 48 h, the cells were treated with different concentrations of the synthesized hybrid compounds for 24 h. After the addition of 20 μL MTT (5 mg/mL), the plates were incubated for 4 h and then 100 μL Dimethyl sulfoxide (DMSO) was added to each well to dissolve the insoluble purple formazan formed. […] The relative cell viability percentage was calculated as (A570 of treated samples/A570 of untreated sample) × 100.

HepG2 = experiment: MTT cytotoxicity assay, HepG2; conditions: Homo sapiens, HepG2, 24 h, read-out: In Vitro Cytotoxicity IC50 HepG2
Description: as §4, §5

MCF-7 = experiment: MTT cytotoxicity assay, MCF-7; conditions: Homo sapiens, MCF7, 24 h, read-out: In Vitro Cytotoxicity IC50 MCF-7
Description: as §4, §5

MDA-MB-231 = experiment: MTT cytotoxicity assay, MDA-MB-231; conditions: Homo sapiens, MDA-MB-231, 24 h, read-out: In Vitro Cytotoxicity IC50 MDA-MB-231
Description: as §4, §5

[1] = test system: HepG2, MCF-7, MDA-MB-231 and HeLa cell lines; experiment: MTT cytotoxicity assay, summary over all four cell lines; conditions: Homo sapiens, read-out: IC50 against all tested cell lines
Description: as §4, §5

CDK2 = biological target: T1, CDK2 (Homo sapiens, UniProt P24941); experiment: In vitro CDK2 enzyme assay (ELISA kit); type: biochemical
T1 construct: purchased
Description: (§1) A human ELISA kit (Enzyme-Linked Immunosorbent Assay) for each of the above-mentioned protein kinase enzymes was used in this assay. […] The mixture was then incubated at room temperature for 2.5 h, after which the wells were washed and 100 μL of the prepared biotin antibody was added and incubated for 1 h at room temperature. After another washing step, 100 μL of streptavidin solution was added and incubated for 45 min at room temperature. The wells were then washed for a third time and 100 μL of TMB Substrate reagent was added and incubated for 30 min at room temperature. Finally, 50 μL of the stop solution was added, and the absorbance was read immediately at 450 nm. A standard curve was plotted showing concentration on the X-axis and absorbance on the Y-axis.

EGFR = biological target: T2, EGFR (Homo sapiens, UniProt P00533); experiment: In vitro EGFR enzyme assay (ELISA kit); type: biochemical
T2 construct: purchased
T2 sequence (P00533 25-1210): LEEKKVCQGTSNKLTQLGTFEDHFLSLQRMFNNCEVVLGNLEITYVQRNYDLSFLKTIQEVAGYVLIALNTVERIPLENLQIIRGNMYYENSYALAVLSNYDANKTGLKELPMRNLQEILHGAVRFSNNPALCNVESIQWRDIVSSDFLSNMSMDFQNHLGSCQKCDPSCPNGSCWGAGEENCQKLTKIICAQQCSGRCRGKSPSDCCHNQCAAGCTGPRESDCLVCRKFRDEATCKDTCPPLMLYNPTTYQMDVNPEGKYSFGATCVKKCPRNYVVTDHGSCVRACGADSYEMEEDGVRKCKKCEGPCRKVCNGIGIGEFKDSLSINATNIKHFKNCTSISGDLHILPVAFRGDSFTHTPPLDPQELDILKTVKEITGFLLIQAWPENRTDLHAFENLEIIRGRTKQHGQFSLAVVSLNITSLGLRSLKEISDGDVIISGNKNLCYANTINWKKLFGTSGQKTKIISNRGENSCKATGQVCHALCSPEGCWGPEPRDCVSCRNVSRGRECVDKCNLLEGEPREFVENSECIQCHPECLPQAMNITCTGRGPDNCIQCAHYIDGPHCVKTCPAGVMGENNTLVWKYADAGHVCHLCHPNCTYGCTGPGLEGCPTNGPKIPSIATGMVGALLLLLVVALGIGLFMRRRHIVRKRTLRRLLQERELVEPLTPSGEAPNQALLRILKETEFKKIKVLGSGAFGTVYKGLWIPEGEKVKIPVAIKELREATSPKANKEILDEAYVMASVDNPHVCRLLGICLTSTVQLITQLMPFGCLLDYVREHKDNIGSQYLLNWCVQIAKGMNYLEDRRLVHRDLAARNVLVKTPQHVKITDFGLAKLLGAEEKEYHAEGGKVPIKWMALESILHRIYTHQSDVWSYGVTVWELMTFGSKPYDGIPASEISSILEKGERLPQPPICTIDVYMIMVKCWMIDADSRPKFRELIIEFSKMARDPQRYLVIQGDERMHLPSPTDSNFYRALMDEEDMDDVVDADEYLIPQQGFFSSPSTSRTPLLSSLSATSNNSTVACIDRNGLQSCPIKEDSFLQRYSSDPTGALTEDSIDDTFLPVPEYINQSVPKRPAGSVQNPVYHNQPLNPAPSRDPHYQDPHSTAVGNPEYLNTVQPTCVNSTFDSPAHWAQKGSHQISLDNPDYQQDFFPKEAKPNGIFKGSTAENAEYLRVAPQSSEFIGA
Description: as §1

Her2 = biological target: T3, Her2 (Homo sapiens, UniProt P04626); experiment: In vitro Her2 enzyme assay (ELISA kit); type: biochemical
T3 construct: purchased
T3 sequence (P04626 23-1255): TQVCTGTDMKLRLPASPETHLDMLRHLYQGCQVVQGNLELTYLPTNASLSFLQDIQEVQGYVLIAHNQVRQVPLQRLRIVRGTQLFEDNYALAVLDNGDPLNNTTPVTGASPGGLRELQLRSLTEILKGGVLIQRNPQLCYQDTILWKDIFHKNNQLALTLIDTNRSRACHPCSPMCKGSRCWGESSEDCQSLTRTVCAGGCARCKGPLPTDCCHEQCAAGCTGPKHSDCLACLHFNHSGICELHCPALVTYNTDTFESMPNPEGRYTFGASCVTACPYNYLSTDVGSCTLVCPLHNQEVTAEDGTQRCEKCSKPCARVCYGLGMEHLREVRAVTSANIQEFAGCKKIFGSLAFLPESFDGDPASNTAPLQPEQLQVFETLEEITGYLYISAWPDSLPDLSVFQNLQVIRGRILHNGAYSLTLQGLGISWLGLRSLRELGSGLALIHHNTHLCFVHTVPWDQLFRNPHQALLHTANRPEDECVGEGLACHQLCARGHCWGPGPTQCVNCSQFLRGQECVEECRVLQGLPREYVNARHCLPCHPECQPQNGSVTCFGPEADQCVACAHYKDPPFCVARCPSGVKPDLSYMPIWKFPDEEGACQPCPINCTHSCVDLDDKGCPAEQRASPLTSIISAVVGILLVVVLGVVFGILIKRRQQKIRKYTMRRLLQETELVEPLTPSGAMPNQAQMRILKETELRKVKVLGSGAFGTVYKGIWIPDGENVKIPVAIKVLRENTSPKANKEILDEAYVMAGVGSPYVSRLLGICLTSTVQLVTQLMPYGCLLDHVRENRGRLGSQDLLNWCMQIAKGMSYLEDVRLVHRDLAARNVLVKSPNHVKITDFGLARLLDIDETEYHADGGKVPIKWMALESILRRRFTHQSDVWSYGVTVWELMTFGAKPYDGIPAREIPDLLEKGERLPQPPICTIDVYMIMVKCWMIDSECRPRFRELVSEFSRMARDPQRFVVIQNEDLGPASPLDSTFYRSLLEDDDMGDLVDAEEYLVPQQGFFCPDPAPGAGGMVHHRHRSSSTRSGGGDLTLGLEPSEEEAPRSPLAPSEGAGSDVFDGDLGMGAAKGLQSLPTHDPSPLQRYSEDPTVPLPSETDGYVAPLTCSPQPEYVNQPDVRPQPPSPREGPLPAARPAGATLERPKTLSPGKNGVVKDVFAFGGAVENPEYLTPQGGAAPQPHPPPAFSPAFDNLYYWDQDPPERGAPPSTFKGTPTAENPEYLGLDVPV
Description: as §1

VEGFR2 = biological target: T4, VEGFR2 (Homo sapiens, UniProt P35968); experiment: In vitro VEGFR-2 enzyme assay (ELISA kit); type: biochemical
T4 construct: purchased
T4 sequence (P35968 20-1356): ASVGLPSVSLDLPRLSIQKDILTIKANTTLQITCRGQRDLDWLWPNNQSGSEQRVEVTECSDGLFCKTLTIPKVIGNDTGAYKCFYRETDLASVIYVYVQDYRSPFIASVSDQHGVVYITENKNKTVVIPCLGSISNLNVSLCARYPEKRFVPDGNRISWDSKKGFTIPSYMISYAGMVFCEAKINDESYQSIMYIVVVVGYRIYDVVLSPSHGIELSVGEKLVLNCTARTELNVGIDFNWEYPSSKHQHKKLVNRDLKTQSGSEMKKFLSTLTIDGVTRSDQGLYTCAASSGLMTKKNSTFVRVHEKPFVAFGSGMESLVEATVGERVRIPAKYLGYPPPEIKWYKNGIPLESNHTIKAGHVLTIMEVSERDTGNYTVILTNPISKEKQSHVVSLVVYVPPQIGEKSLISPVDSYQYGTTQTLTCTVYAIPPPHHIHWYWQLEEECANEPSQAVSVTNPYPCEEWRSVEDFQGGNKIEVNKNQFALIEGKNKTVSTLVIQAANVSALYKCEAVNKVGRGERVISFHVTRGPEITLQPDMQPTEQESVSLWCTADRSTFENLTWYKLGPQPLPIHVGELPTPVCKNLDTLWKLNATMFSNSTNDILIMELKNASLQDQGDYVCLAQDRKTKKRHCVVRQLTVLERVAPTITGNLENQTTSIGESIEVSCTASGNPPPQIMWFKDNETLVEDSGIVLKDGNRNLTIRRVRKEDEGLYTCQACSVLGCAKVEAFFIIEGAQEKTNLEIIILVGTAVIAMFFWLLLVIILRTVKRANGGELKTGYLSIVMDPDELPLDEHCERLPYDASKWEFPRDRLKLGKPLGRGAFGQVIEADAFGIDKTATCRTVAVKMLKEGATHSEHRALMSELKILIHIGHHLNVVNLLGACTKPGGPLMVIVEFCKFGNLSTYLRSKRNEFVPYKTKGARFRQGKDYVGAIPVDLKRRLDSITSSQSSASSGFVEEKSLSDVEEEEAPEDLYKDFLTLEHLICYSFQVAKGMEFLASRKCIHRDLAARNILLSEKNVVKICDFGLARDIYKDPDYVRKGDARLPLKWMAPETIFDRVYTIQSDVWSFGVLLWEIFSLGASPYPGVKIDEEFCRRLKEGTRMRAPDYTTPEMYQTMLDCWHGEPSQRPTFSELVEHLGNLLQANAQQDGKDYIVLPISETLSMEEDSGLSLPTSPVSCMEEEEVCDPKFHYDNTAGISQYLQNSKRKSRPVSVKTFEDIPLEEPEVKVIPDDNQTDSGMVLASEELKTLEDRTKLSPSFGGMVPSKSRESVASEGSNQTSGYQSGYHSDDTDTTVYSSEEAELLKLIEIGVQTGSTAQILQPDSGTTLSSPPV
Description: as §1

HepG2 cells [2] = experiment: Flow cytometry cell cycle analysis (propidium iodide); type: cell-based, human; conditions: HepG2, 9.61 μM, 24 h
Description: In addition, the cell cycle progression assay as described by Wang et al. was used to investigate the effect of compound 15 in HepG2 cells. The biological effect of compound 15 was measured by treating HepG2 cells with 9.61 μM of the compound for 24 h. The compound’s effect on cell cycle distribution was analyzed by comparing with untreated control cells (Table 3, Figure 6).
Flow cytometry analysis was carried out using an ab139418 Propidium Iodide flow cytometry kit/BD to detect the effect of the synthesized compound 15 on cell cycle distribution. First, HepG2 cell were seeded in 6-well plates at a density of 2 × 10^5/well and incubated for 24 h. HepG2 cells were then treated with 9.61 µM of compound 15 for 24 h. The treated cells were then fixed in 70% ethanol for 12 h at 4 °C, rinsed with cold PBS, incubated with 100 μL RNase A for 0.5 h at 37 °C, and stained with Propidium Iodide (400 μL) in the dark at RT for an extra 0.5 h. The stained cells were determined utilizing Epics XLMCL™ flow cytometer equipment (Beckman Coulter, Apeldoorn, Netherlands), and the results were collected and analyzed using Flowing software (version 2.5.1, Turku Centre for Biotechnology, Turku, Finland).

HepG2 cells [3] = experiment: Annexin V/propidium iodide apoptosis flow cytometry; type: cell-based, human; conditions: HepG2, 9.61 μM, 24 h
Description: On the other hand, an Annexin V/propidium iodide (PI) double staining assay was conducted to identify the mode of cell death promoted by compound 15 (9.61 μM) following 24 h incubation with HepG2 cells.
Flow cytometry cell apoptosis analysis was conducted to examine the apoptotic effect of the synthesized compounds using the Annexin V-FITC cell apoptosis detection kit (Biovision, K101-100). First, HepG2 cells in a density of 2 × 10^5 were seeded in 6-well plates and incubated for 24 h. The cells were then treated with 9.61 µM compound 15 for 24 h. The treated cells were then detached with trypsin (5 min, 37 °C), collected by centrifugation (5 min, 300× g), washed twice with PBS, and resuspended in 0.1 mL of a 1X binding buffer. After that, the cells were double-stained with 5 μL Annexin V-FITC and 5 μL PI in the dark at room temperature for 15 min. The stained cells were evaluated using an Epics XL-MCL™ Flow Cytometer (Beckman Coulter, Apeldoorn, Netherlands) with an excitation wavelength of 488 nm and an emission wavelength of 530 nm, and the data were interpreted using the Flowing software (version 2.5.1, Turku Centre for Biotechnology, Turku, Finland).

BAX = BAX protein level ELISA in HepG2 cells; type: cell-based, human; conditions: HepG2, 9.61 μM, 24 h
Description: (§2) In these assays, compound 15 was used at its cytotoxic concentration (9.61 μM) and incubated with HepG2 cells for 24 h.
(§3) HepG2 cells were seeded in 96-well plates in triplicate and incubated for 24 h. The incubated cells were then treated with compound 15 at different concentrations. Cells treated with 0.1% DMSO (V/V) served as control. After 24 h incubation, caspase 3 and 9, BAX and Bcl-2 levels were determined using ELISA assay kits KHO1091 (Invitrogen^TM, Grand Island, NY, USA), EIA-4860 (DRU International INC., Mountainside, NJ, USA), EIA-4487 (DRU International INC., Mountainside, NJ, USA) and 99-0042 (Invitrogen^TM, Grand Island, NY, USA), respectively, according to the manufacturers’ procedures.

Bcl-2 = Bcl-2 protein level ELISA in HepG2 cells; type: cell-based, human; conditions: HepG2, 9.61 μM, 24 h
Description: as §2, §3

Caspase 3 = Caspase 3 protein level ELISA in HepG2 cells; type: cell-based, human; conditions: HepG2, 9.61 μM, 24 h
Description: as §2, §3

Caspase 9 = Caspase 9 protein level ELISA in HepG2 cells; type: cell-based, human; conditions: HepG2, 9.61 μM, 24 h
Description: as §2, §3

Work on `O=C1Nc2ccccc2C1=NNC(=O)c1ccc(Nc2ncnc3[nH]cnc23)cc1` [Compound 4, 4-((9H-purin-6-yl)amino)-N’-(2-oxoindolin-3-ylidene)benzohydrazide] yielded a melting point of over 300 °C, an IC50 (HeLa) of 62.4 ± 3.4 µM and an IC50 (HepG2) of 54.6 ± 3.1 µM. The IC50 (MCF-7) was 47.3 ± 3 µM and the IC50 (MDA-MB-231) was 59.7 ± 2.9 µM.

Compound `O=C1Nc2ccc(Cl)cc2C1=NNC(=O)c1ccc(Nc2ncnc3[nH]cnc23)cc1` [Compound 5, 4-((9H-purin-6-yl)amino)-N’-(5-chloro-2-oxoindolin-3-ylidene)benzohydrazide] has a melting point of over 300 °C, an IC50 (HeLa) of over 100 µM and an IC50 (HepG2) of 88.1 ± 4 µM. It also gave an IC50 (MCF-7) of over 100 µM and an IC50 (MDA-MB-231) of 82.1 ± 3.8 µM.

With `O=C1Nc2ccc(F)cc2C1=NNC(=O)c1ccc(Nc2ncnc3[nH]cnc23)cc1` [Compound 6, 4-((9H-purin-6-yl)amino)-N’-(5-fluoro-2-oxoindolin-3-ylidene)benzohydrazide] the melting point was over 300 °C, the IC50 (HeLa) was 30.7 ± 2.3 µM and the IC50 (HepG2) was 42.4 ± 2.7 µM. It also gave an IC50 (MCF-7) of 22.3 ± 1.8 µM, an IC50 (MDA-MB-231) of 19.1 ± 1.4 µM and an IC50 [1] of 18.1 to 53.5 µM.

In the case of `Cc1ccc2c(c1)C(=NNC(=O)c1ccc(Nc3ncnc4[nH]cnc34)cc1)C(=O)N2` [Compound 7, 4-((9H-purin-6-yl)amino)-N’-(5-methyl-2-oxoindolin-3-ylidene)benzohydrazide], the melting point is reported as over 300 °C, the IC50 (HeLa) is reported as over 100 µM and the IC50 (HepG2) is reported as 60.4 ± 3.2 µM. The IC50 (MCF-7) was 76.4 ± 3.7 µM and the IC50 (MDA-MB-231) was 91.6 ± 4.5 µM.

For `COc1ccc2c(c1)C(=NNC(=O)c1ccc(Nc3ncnc4[nH]cnc34)cc1)C(=O)N2` [Compound 8, 4-((9H-purin-6-yl)amino)-N’-(5-methoxy-2-oxoindolin-3-ylidene)benzohydrazide], the melting point was over 300 °C, the IC50 (HeLa) was 53.5 ± 3.2 µM and the IC50 (HepG2) was 48.1 ± 2.9 µM. The IC50 (MCF-7) was 40.6 ± 2.7 µM, the IC50 (MDA-MB-231) was 29.8 ± 2 µM and the IC50 [1] was 18.1 to 53.5 µM.

For `O=C1Nc2ccc([N+](=O)[O-])cc2C1=NNC(=O)c1ccc(Nc2ncnc3[nH]cnc23)cc1` [Compound 9, 4-((9H-purin-6-yl)amino)-N’-(5-nitro-2-oxoindolin-3-ylidene)benzohydrazide], the melting point was over 300 °C, the IC50 (HeLa) was 84.6 ± 4.1 µM and the IC50 (HepG2) was 75.6 ± 3.5 µM. It also gave an IC50 (MCF-7) of 65 ± 3.4 µM and an IC50 (MDA-MB-231) of 72.2 ± 3.4 µM.

`O=C1Nc2ccccc2/C1=N\Nc1ncnc2[nH]cnc12` [Compound 11, (E)-3-(2-(9H-purin-6-yl)hydrazineylidene)indolin-2-one] showed a melting point of over 300 °C, an IC50 (HeLa) of 17.6 ± 1.4 µM and an IC50 (HepG2) of 12.9 ± 1 µM. For the same compound, the IC50 (MCF-7) was 15.6 ± 1.3 µM and the IC50 (MDA-MB-231) was 24.8 ± 1.9 µM.

`O=C1Nc2ccc(Cl)cc2/C1=N\Nc1ncnc2[nH]cnc12` [Compound 12, (E)-3-(2-(9H-purin-6-yl)hydrazineylidene)-5-chloroindolin-2-one] gave a melting point of 296 to 298 °C, an IC50 (HeLa) of 46.7 ± 2.8 µM and an IC50 (HepG2) of 26.4 ± 1.8 µM. The IC50 (MCF-7) was 33 ± 2.3 µM, the IC50 (MDA-MB-231) was 41.3 ± 2.5 µM and the IC50 [1] was 18.1 to 53.5 µM.

In the case of `O=C1Nc2ccc(F)cc2/C1=N\Nc1ncnc2[nH]cnc12` [Compound 13, (E)-3-(2-(9H-purin-6-yl)hydrazineylidene)-5-fluoroindolin-2-one], the melting point is reported as over 300 °C, the IC50 (HeLa) is reported as 51.2 ± 3 µM and the IC50 (HepG2) is reported as 31.7 ± 2.1 µM. It also gave an IC50 (MCF-7) of 38.8 ± 2.5 µM, an IC50 (MDA-MB-231) of 45.2 ± 2.7 µM and an IC50 [1] of 18.1 to 53.5 µM.

With `Cc1ccc2c(c1)/C(=N\Nc1ncnc3[nH]cnc13)C(=O)N2` [Compound 14, (E)-3-(2-(9H-purin-6-yl)hydrazineylidene)-5-methylindolin-2-one] the melting point was 294 to 296 °C, the IC50 (HeLa) was 43.5 ± 2.7 µM and the IC50 (HepG2) was 18.1 ± 1.3 µM. The IC50 (MCF-7) was 27.5 ± 2.1 µM, the IC50 (MDA-MB-231) was 32.5 ± 2.2 µM and the IC50 [1] was 18.1 to 53.5 µM.

With `COc1ccc2c(c1)/C(=N\Nc1ncnc3[nH]cnc13)C(=O)N2` [Compound 15, (E)-3-(2-(9H-purin-6-yl)hydrazineylidene)-5-methoxyindolin-2-one] the IC50 (CDK2) was 0.534 µM, the IC50 (EGFR) was 0.143 µM and the IC50 (Her2) was 0.15 µM. The IC50 (VEGFR2) was 0.192 µM, the “accumulation at pre-G1 compared to control cells” value (HepG2 cells [2]) was 10 fold and the “Cell Cycle Distribution (%) % Pre-G1” value (HepG2 cells [2]; control 2.02) was 21.47%. The “Cell Cycle Distribution (%) % G2/M” value (HepG2 cells [2]; control 17.45) was 6.38%, the “Cell Cycle Distribution (%) % S” value (HepG2 cells [2]; control 38.16) was 42.44% and the “Cell Cycle Distribution (%) % G0–G1” value (HepG2 cells [2]; control 44.39) was 51.18%. For the same compound, the “Apoptosis: Late” value (HepG2 cells [3]; control 0.19%) was 12.58%, the “Apoptosis: Early” value (HepG2 cells [3]; control 0.38%) was 1.86% and the “Apoptosis: Necrosis” value (HepG2 cells [3]; control 1.45%) was 7.03%. The viability at 9.61 µM (HepG2 cells [3]; Homo sapiens, control 97.98%, read-out: Apoptosis: Viable) was 78.5%, the “BAX Expression” value (BAX; control 83.88 ± 23) was 279.1 ± 8.15 pg/mL and the “BAX Fold” value (BAX; relative to control = 1) was 3.38 fold. The “Bcl-2 Expression” value (Bcl-2; control 10.67 ± 0.83) was 4.593 ± 0.22 pg/mL, the “Bcl-2 protein level decrease” value (Bcl-2; fold decrease versus control) was 2.30 fold and the “Bcl-2 Fold” value (Bcl-2; relative to control = 1) was 0.43 fold. For the same compound, the “Caspase 3 Expression” value (Caspase 3; control 93.23 ± 15.5) was 368.4 ± 20.7 pg/mL, the “Caspase 3 Fold” value (Caspase 3; relative to control = 1) was 3.95 fold and the “Caspase 9 Expression” value (Caspase 9; control 4.52 ± 1.27) was 14.07 ± 0.58 pg/mL. For the same compound, the “Caspase 9 Fold” value (Caspase 9; relative to control = 1) was 3.11 fold, the IC50 (HeLa) was 8.93 ± 0.8 µM and the IC50 (HepG2) was 9.61 ± 0.8 µM. The IC50 (MCF-7) was 10.8 ± 0.9 µM, the IC50 (MDA-MB-231) was 14.9 ± 1.2 µM and the IC50 [1] was 8.93 to 14.9 µM.

Compound `O=C1Nc2ccc([N+](=O)[O-])cc2/C1=N\Nc1ncnc2[nH]cnc12` [Compound 16, (E)-3-(2-(9H-purin-6-yl)hydrazineylidene)-5-nitroindolin-2-one] has a melting point of over 300 °C, an IC50 (HeLa) of 69.5 ± 3.6 µM and an IC50 (HepG2) of 39.7 ± 2.5 µM. It also gave an IC50 (MCF-7) of 58.3 ± 3.2 µM and an IC50 (MDA-MB-231) of 67.4 ± 3.2 µM.

`CCN(CC)CCNC(=O)c1c(C)[nH]c(/C=C2\C(=O)Nc3ccc(F)cc32)c1C` [Sunitinib, reference compound] showed an IC50 (HeLa) of 7.48 ± 0.6 µM, an IC50 (HepG2) of 6.82 ± 0.5 µM and an IC50 (MCF-7) of 5.19 ± 0.4 µM. The IC50 (MDA-MB-231) was 8.41 ± 0.7 µM.
